The test system of the assay is Nippostrongylus brasiliensis. Nature of the assay: In-vitro experiments with adult Nippostrongylus brasiliensis: acetylcholine esterase activity in the incubation medium. It is filed as cell-based. The arrangement: key: 0=no activity (<50% enzyme inhibition); 1=weak activity; 2=good activity; 3=full activity. The protocol:
Test Method for In-Vitro Experiments with Nippostrongylus brasiliensis
Adult Nippostrongylus brasiliensis were isolated from the small intestine of female Wistar rats and transferred into 0.9% NaCl containing 20 μg/ml sisomycin and 2 μg/ml Canesten. The groups of worms (both sexes) were incubated in 1.0 ml of medium, which was also used for determining the acetylcholine esterase activity. The incubation and the enzyme assay were described in the paper by Rapson et al. (1987) Z. Parasitenkunde 73, 190-191. […] The controls only contained DMSO. The acetylcholine esterase activity in the incubation medium was determined in accordance with the above publication.
The efficacy was categorized by means of a scale 0-3, where 0=no activity (<50% enzyme inhibition); 1=weak activity; 2=good activity; 3=full activity

Regarding `COCC(=O)Nc1ccc(/N=C(\C)N(C)C)cc1` [Amidantel, amidantel], the “efficacy (scale 0-3, acetylcholine esterase inhibition)” value (Amidantel 10 ppm alone (PF1022A 0 ppm)) stood at 1; the “efficacy (scale 0-3, acetylcholine esterase inhibition)” value (Amidantel 50 ppm alone (PF1022A 0 ppm)) is 1; the “efficacy (scale 0-3, acetylcholine esterase inhibition)” value (Amidantel 100 ppm alone (PF1022A 0 ppm)) was 1.
Turning to `C/C(=N\c1ccc(N)cc1)N(C)C` [Bay d 9216], the “efficacy (scale 0-3, acetylcholine esterase inhibition)” value reads like this: (Bay d 9216 1 ppm alone (PF1022A 0 ppm)) 1; (Bay d 9216 5 ppm alone (PF1022A 0 ppm)) 1; (Bay d 9216 10 ppm alone (PF1022A 0 ppm)) 1.
For the compound `CC(C)CC1C(=O)OC(Cc2ccccc2)C(=O)N(C)C(CC(C)C)C(=O)OC(C)C(=O)N(C)C(CC(C)C)C(=O)OC(Cc2ccccc2)C(=O)N(C)C(CC(C)C)C(=O)OC(C)C(=O)N1C` (stereo not drawn) [PF1022A], the “efficacy (scale 0-3, acetylcholine esterase inhibition)” value (PF1022A 0.01 ppm alone (Amidantel 0 ppm)) is 1; the “efficacy (scale 0-3, acetylcholine esterase inhibition)” value (PF1022A 0.01 ppm alone (Bay d 9216 0 ppm)) came out at 1; the “efficacy (scale 0-3, acetylcholine esterase inhibition)” value (PF1022A 0.05 ppm alone (Amidantel 0 ppm)) turned out to be 1; the “efficacy (scale 0-3, acetylcholine esterase inhibition)” value (PF1022A 0.05 ppm alone (Bay d 9216 0 ppm)) was determined as 1; the “efficacy (scale 0-3, acetylcholine esterase inhibition)” value (PF1022A 0.1 ppm alone (Amidantel 0 ppm)) came out at 2; the “efficacy (scale 0-3, acetylcholine esterase inhibition)” value (PF1022A 0.1 ppm alone (Bay d 9216 0 ppm)) worked out at 2.

Values taken from patent publication US20110201550A1, “COMBINATION OF AMIDINE DERIVATIVES WITH CYCLIC DEPSIPEPTIDES” (Bayer Animal Health GMBH, priority 2008, published 2011).
